Data as given in patent US4798828A, “Heterocyclic-methylene-penems” (Beecham Group p.l.c., priority 1984, dated 1989).
Values after ≈ are worked out from the molar mass of the structure shown.

Legend:
Test in all cases: Antibacterial activity of compounds alone (MIC)
Type in all cases: cell-based
Conditions in all cases: compound alone, amoxycillin: typical MIC's from a number of tests, read-out: MIC (minimum inhibitory concentration)
C freundii Mantio = test system: C freundii Mantio
Description: (§1) The following Table 1 summaries the antibacterial activity of selected compounds according to the invention (which are identified by compound numbers as given in the examples) against selected micro-organisms and, for comparison purposes, also gives the same data for amoxycillin. The data is given in the form of MIC values (minimum inhibitory concentration)in μg/ml.

E aerogenes N1 = test system: E aerogenes N1
Description: as §1

E coli JT410 = test system: E coli JT410
Description: as §1

P mirabilis C889 = test system: P mirabilis C889
Description: as §1

Row | Structure (SMILES) | MIC (C freundii Mantio) [µg/mL] | MIC (E aerogenes N1) [µg/mL] | MIC (E coli JT410) [µg/mL] | MIC (P mirabilis C889) [µg/mL]
1 | Cn1cc(/C=C2/C(=O)N3C(C(=O)O)=CSC23)nn1 (racemic) [88(a), (5RS) Sodium (Z)-6-(1-methyl-1,2,3-triazol-4-yl-methylene)penem-3-carboxylate] | 128 | 128 | 64 | 128
2 | O=C(O)C1=CSC2/C(=C\c3ccns3)C(=O)N12 (racemic) [Compound 11, (5RS) Sodium (Z)-6-(5-Isothiazolylmethylene)penem-3-carboxylate] | > 100 | > 100 | > 100 | > 100
3 | O=C(O)C1=CSC2/C(=C\c3ccon3)C(=O)N12 (racemic) [Compound 43, (5RS) Sodium (Z)-6-(Isoxazol-3-ylmethylene)penem-3-carboxylate] | 256 | > 512 | > 512 | 256
4 | Cc1nc(/C=C2/C(=O)N3C(C(=O)O)=CSC23)co1 (racemic) [Compound 78, (5RS) Sodium (Z)-6-[(2-methyloxazol-4-yl)methylene]penem-3-carboxylate] | > 512 | > 512 | > 512 | 256
5 | Cn1ccc(/C=C2/C(=O)N3C(C(=O)O)=CSC23)n1 (racemic) [Compound 169, (5RS) Sodium (Z)-6-(1-methylpyrazol-3-ylmethylene)penem-3-carboxylate] | 256 | 512 | 512 | 256
6 | CC1(C)S[C@@H]2[C@H](NC(=O)[C@H](N)c3ccc(O)cc3)C(=O)N2[C@H]1C(=O)O [Amoxycillin, reference compound] | > 512 | 512 (≈ 1400 µM) | 256 (≈ 701 µM) | > 512
7 | Cn1cc(/C=C2/C(=O)N3C(C(=O)O)=CS[C@H]23)nn1 [Compound 158, (5R) Sodium (Z)-6-(1-methyl-1,2,3-triazol-4-ylmethylene) penem-3-carboxylate] | 64 | 256 | 32 | 64
